Laboratory results from ChEMBL document CHEMBL5321280, “Novel 4-Arylindolines Containing a Pyrido[3,2-d]pyrimidine Moiety as the Programmed Cell Death-1/Programmed Cell Death-Ligand 1 Interaction Inhibitors for Tumor Immunotherapy” (J Med Chem, 2023).
Active and inactive are the calls of the source. No cut-off for these calls is given here.

Experiments:
[1] = target: Programmed cell death protein 1/Programmed cell death 1 ligand 1 (Homo sapiens, UniProt Q15116+Q9NZQ7); assay: Inhibition of PD-1/PD-L1 (unknown origin) protein-protein interaction incubated for 105 mins by HTRF assay; type: protein-complex assay
T-cell [2] = assay: Immunomodulatory activity in concanavalin A stimulated BALB/c mouse T-lymphocyte co-cultured with mouse CT26 cells assessed as increase in T cell proliferation at 5 to 80 nM incubated for 48 hrs by flow cytometry; type: functional, cell-based; settings: dose 5-80 nM
T-cell [3] = assay: Immunomodulatory activity in concanavalin A stimulated BALB/c mouse T-lymphocyte co-cultured with mouse CT26 cells assessed as T cell proliferation at 20 nM incubated for 48 hrs by flow cytometry (reference value: 64.08 +/- 0.91%); type: functional
T-cell [4] = assay: Immunomodulatory activity in concanavalin A stimulated BALB/c mouse T-lymphocyte co-cultured with mouse CT26 cells overexpressing PD-L1 assessed as increase in T cell proliferation at 5 to 80 nM incubated for 48 hrs by flow cytometry; type: functional, cell-based; settings: dose 5-80 nM
T-cell [5] = assay: Immunomodulatory activity in concanavalin A stimulated BALB/c mouse T-lymphocyte co-cultured with mouse CT26 cells overexpressing PD-L1 assessed as T cell proliferation at 20 nM incubated for 48 hrs by flow cytometry (reference value: 58.47 +/- 2.07%); type: functional
T-cell [6] = assay: Immunomodulatory activity in concanavalin A stimulated BALB/c mouse T-lymphocyte co-cultured with mouse CT26 cells overexpressing PD-L1 assessed as increase in proportion of CD3 positive CD69 positive T cells at 80 nM incubated for 48 hrs by flow cytometry (reference value: 41.22%); type: functional
[7] = Metabolic stability in human liver microsomes assessed as half life; type: ADME, Microsome
T-cell [8] = assay: Immunomodulatory activity in concanavalin A stimulated BALB/c mouse T-lymphocyte co-cultured with mouse CT26 cells overexpressing PD-L1 assessed as increase in proportion of CD3 positive CD69 positive T cells at 20 nM incubated for 48 hrs by flow cytometry (reference value: 39.97%); type: functional
T-cell [9] = assay: Immunomodulatory activity in concanavalin A stimulated BALB/c mouse T-lymphocyte co-cultured with mouse CT26 cells overexpressing PD-L1 assessed as increase in proportion of CD3 positive CD8 positive T cells at 20 nM incubated for 48 hrs by flow cytometry (reference value: 15.01%); type: functional
T-cell [10] = assay: Immunomodulatory activity in concanavalin A stimulated BALB/c mouse T-lymphocyte co-cultured with mouse CT26 cells overexpressing PD-L1 assessed as increase in proportion of CD3 positive CD8 positive T cells at 80 nM incubated for 48 hrs by flow cytometry (reference value: 14.38%); type: functional

Programmed cell death protein 1/Programmed cell death 1 ligand 1, sequence (Q15116 whole entry): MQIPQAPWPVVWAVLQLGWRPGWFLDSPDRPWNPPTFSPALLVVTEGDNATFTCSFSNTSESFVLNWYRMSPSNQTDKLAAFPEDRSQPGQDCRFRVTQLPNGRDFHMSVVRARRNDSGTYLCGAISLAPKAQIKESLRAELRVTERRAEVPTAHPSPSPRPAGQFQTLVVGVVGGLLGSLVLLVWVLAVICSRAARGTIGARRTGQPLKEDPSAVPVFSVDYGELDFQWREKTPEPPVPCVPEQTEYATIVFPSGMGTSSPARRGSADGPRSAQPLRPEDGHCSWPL
Programmed cell death protein 1/Programmed cell death 1 ligand 1, sequence (Q9NZQ7 whole entry): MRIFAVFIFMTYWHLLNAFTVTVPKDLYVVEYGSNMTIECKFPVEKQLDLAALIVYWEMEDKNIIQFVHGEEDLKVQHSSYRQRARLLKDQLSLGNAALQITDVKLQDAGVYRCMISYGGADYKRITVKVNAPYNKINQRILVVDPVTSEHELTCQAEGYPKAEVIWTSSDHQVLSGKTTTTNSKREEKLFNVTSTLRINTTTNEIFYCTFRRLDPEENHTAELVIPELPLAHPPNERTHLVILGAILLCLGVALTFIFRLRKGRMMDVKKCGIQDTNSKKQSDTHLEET

| Compound | IC50 [1] [nM] | Activity (T-cell [2]) | Activity (T-cell [3]) [%] | Activity (T-cell [4]) | Activity (T-cell [5]) [%] | further results |
| --- | --- | --- | --- | --- | --- | --- |
| NS(=O)(=O)NCCNCc1cnc2c(N3CCc4c(-c5ccc6c(c5)OCCO6)cccc43)ncnc2c1 | 31.5 |  |  |  |  |  |
| OC[C@H]1CCN(Cc2cnc3c(N4CCc5c(-c6ccccc6)cccc54)ncnc3c2)C1 | 21.4 |  |  |  |  |  |
| O=C(O)[C@H]1CCN(Cc2cnc3c(N4CCc5c(-c6ccccc6)cccc54)ncnc3c2)C1 | 8.1 | Active | 54.44 | Active | 52.78 |  |
| c1ccc(-c2cccc3c2CCN3c2ncnc3cc(CNC4CCOCC4)ccc23)cc1 | 108 |  |  |  |  |  |
| OCCNCc1ccc2c(N3CCc4c(-c5ccccc5)cccc43)ncnc2c1 | 43.4 |  |  |  |  |  |
| NS(=O)(=O)NCCNCc1cnc2c(N3CCc4c(-c5ccccc5)cccc43)ncnc2c1 | 21.1 |  |  |  |  |  |
| O=C(O)[C@@H]1CCCN1Cc1cnc2c(N3CCc4c(-c5ccccc5)cccc43)ncnc2c1 | 8.1 | Active | 64.03 | Active | 61.9 |  |
| O[C@H]1CCN(Cc2cnc3c(N4CCc5c(-c6ccccc6)cccc54)ncnc3c2)C1 | 17.4 |  |  |  |  |  |
| O=C(O)[C@H]1CCCN1Cc1cnc2c(N3CCc4c(-c5ccccc5)cccc43)ncnc2c1 | 22.7 |  |  |  |  |  |
| CC(=O)NCCNCc1cnc2c(N3CCc4c(-c5ccccc5)cccc43)ncnc2c1 | 3.9 | Active | 51.57 | Active | 55.7 | Activity (T-cell [6]): 45.07%; half-life [7]: 1.85 h; Activity (T-cell [8]): 43.99%; Activity (T-cell [9]): 18.56%; Activity (T-cell [10]): 22.16% |
| O=C(O)[C@@H]1CCN(Cc2cnc3c(N4CCc5c(-c6ccccc6)cccc54)ncnc3c2)C1 | 8.6 | Active | 43.98 | Active | 38.74 |  |
| CC(=O)NCCNCc1cnc2c(N3CCc4c(-c5ccc6c(c5)OCCO6)cccc43)ncnc2c1 | 13.8 |  |  |  |  |  |
| c1ccc(-c2cccc3c2CCN3c2nccc3cc(CNC4CCOCC4)cnc23)cc1 | 128 |  |  |  |  |  |
| OCCNCc1cnc2c(N3CCc4c(-c5ccc6c(c5)OCCO6)cccc43)ncnc2c1 | 7.2 | Active | 61.77 | Active | 59.54 |  |
| COCCNCc1cnc2c(N3CCc4c(-c5ccccc5)cccc43)ncnc2c1 | 23.4 |  |  |  |  |  |
| CC(=O)NCCNCc1cnc2c(N3CCc4c(-c5ccccc5)cccc43)nccc2c1 | 84.5 |  |  |  |  |  |
